Experimental data as given in ChEMBL document CHEMBL1909046, “DrugMatrix in vitro pharmacology data”.

Experiments:
Melanocortin receptor 5 = Melanocortin receptor 5 (Homo sapiens, UniProt P33032); format: cell membranes, HEK293, Membrane; further: in other assays of this panel Not Active means under 50% inhibition at 10 µM
[1] = molecular target: T1, Nitric oxide synthase, inducible (Mus musculus, UniProt P29477); parameters: species or system Escherichia coli;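 further: inhibition of iNOS enzyme activity measured with L-arginine as substrate; in other assays of this panel Not Active means under 50% inhibition at 10 µM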
T1 sequence (P29477 whole entry): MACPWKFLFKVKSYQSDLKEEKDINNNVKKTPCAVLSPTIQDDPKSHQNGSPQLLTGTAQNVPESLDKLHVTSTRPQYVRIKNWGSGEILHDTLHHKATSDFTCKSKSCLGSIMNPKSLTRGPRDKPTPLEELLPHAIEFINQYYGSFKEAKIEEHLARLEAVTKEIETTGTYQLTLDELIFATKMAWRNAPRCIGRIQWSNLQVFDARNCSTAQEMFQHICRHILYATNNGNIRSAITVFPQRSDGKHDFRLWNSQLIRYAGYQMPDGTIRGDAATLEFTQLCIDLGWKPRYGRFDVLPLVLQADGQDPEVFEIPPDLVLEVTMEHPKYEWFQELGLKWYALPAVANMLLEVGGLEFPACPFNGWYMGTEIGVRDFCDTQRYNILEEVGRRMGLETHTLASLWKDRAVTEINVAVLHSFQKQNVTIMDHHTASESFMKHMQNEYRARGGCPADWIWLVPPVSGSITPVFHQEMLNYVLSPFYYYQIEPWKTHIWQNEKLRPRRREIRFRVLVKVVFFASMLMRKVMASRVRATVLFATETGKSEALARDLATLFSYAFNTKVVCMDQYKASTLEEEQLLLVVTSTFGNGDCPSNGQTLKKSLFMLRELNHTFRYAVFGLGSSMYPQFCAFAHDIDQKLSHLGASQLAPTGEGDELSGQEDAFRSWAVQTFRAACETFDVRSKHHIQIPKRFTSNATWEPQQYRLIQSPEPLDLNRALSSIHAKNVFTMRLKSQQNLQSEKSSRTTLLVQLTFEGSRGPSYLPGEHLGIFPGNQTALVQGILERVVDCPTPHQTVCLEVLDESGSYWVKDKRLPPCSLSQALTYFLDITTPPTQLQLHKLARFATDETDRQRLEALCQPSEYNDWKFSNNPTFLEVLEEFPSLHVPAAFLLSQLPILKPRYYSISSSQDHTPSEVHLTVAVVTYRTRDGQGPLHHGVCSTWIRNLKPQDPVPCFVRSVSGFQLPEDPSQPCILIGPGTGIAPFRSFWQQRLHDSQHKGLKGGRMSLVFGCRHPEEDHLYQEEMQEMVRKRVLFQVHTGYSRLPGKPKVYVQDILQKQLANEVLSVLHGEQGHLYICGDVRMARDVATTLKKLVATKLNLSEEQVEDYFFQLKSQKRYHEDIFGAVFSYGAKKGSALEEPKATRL

Neutrophil elastase = molecular target: T2, Neutrophil elastase (Homo sapiens, UniProt P08246); format: tissue-based;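 further: inhibition of neutrophil elastase enzyme activity, measured with a p-nitroanilide-linked peptide substrate; in other assays of this panel Not Active means under 50% inhibition at 10 µM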
T2 sequence (P08246 whole entry): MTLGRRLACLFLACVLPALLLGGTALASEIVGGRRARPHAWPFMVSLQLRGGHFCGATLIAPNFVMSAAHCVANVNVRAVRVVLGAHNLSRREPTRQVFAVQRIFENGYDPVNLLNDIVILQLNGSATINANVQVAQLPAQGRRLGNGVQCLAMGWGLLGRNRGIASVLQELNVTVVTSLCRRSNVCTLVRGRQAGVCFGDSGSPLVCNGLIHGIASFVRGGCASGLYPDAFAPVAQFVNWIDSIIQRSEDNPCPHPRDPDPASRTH

[2] = DRUGMATRIX: Calcium Channel Type L, Benzothiazepine radioligand binding (ligand: [3H] Diltiazem); format: cell membranes, Rattus norvegicus, Wistar, Brain, Membrane; conditions: Not Active = under 50% inhibition at 10 µM
Nitric oxide synthase 1 = Nitric oxide synthase 1 (Rattus norvegicus, UniProt P29476); format: tissue-based, Cerebellum; further: in other assays of this panel Not Active means under 50% inhibition at 10 µM
[3] = DRUGMATRIX: Imidazoline I2, Central radioligand binding (ligand: [3H] Idazoxan); format: cell membranes, Rattus norvegicus, Wistar, Cerebral cortex, Membrane; conditions: Not Active = under 50% inhibition at 10 µM
D(3) dopamine receptor = D(3) dopamine receptor (Homo sapiens, UniProt P35462); test: DRUGMATRIX: Dopamine D3 radioligand binding (ligand: [3H] Spiperone); format: cell membranes, CHO, Membrane; conditions: for Ki: read-out: Ki
Substance-P receptor = Substance-P receptor (Homo sapiens, UniProt P25103); format: cell membranes, CHO, Membrane; further: in other assays of this panel Not Active means under 50% inhibition at 10 µM
Sequence of Substance-P receptor (P25103 whole entry): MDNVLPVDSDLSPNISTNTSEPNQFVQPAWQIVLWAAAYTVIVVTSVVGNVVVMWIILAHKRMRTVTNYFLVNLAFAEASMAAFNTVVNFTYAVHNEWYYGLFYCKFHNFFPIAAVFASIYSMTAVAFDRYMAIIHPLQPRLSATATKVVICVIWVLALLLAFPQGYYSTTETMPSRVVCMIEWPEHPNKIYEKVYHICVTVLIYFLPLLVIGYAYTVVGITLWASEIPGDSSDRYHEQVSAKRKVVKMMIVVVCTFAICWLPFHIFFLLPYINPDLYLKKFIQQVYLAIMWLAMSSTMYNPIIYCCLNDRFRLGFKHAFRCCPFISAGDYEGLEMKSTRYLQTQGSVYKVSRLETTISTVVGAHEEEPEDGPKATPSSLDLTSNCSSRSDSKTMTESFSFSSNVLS

Sequence of D(3) dopamine receptor (P35462 whole entry): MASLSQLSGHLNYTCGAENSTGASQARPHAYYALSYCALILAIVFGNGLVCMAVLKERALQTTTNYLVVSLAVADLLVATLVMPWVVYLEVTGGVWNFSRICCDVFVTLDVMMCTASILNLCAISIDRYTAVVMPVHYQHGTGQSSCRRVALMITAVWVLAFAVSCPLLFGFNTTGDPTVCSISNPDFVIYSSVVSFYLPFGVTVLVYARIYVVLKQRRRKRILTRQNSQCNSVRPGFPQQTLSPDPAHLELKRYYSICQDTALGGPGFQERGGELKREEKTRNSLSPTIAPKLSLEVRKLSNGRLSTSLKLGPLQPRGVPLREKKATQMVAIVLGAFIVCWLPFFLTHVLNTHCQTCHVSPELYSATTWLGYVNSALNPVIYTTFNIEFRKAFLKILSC
Sequence of Melanocortin receptor 5 (P33032 whole entry): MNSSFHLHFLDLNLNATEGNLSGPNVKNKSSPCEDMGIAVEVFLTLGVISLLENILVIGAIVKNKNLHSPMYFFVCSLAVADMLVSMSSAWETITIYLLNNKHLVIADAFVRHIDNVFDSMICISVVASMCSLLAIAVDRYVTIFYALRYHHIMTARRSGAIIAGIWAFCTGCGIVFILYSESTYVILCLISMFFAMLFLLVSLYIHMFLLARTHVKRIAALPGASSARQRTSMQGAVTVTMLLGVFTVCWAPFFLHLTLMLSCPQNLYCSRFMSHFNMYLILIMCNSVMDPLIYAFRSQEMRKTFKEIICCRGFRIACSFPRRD
Sequence of Nitric oxide synthase 1 (P29476 whole entry): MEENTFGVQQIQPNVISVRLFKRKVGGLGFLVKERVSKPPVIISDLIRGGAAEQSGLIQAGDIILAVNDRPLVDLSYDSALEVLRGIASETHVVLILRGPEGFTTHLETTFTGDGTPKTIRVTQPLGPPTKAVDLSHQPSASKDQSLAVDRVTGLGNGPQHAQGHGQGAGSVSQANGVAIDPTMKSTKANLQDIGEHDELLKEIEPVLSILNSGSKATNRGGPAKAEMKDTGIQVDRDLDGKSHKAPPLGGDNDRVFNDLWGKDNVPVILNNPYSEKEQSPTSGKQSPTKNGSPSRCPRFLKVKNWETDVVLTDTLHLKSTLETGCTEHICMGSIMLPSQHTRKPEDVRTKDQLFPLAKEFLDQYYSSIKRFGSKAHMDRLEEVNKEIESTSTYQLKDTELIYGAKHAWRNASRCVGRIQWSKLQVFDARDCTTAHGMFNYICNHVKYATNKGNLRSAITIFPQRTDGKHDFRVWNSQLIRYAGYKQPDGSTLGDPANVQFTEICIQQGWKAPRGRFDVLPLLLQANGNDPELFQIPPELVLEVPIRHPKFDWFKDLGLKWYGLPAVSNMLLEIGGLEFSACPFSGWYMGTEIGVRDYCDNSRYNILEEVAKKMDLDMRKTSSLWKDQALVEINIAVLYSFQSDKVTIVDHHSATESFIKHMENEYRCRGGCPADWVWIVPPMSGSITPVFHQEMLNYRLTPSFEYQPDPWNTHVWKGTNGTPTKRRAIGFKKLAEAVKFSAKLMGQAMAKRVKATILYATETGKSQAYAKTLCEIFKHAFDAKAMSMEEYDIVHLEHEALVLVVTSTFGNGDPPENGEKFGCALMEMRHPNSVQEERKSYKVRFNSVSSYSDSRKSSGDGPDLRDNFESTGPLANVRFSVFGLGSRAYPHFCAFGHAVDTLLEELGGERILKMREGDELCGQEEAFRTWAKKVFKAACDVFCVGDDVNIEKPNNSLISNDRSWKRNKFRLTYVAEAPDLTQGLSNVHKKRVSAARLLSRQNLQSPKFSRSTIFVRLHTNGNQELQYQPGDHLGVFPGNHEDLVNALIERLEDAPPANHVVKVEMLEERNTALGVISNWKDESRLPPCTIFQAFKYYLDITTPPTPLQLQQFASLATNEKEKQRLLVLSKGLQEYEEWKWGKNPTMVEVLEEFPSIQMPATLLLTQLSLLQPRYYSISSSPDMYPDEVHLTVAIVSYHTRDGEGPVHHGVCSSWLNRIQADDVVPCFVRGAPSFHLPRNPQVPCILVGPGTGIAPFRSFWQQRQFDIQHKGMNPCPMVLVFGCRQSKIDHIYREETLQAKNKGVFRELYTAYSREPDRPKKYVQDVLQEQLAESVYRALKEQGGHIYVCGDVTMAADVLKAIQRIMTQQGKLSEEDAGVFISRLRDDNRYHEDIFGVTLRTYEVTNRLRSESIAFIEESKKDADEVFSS

| Structure (SMILES) | IC50 (Melanocortin receptor 5; hek293) | IC50 [1] | IC50 (Neutrophil elastase) | IC50 [2] | Ki [2] | IC50 (Nitric oxide synthase 1) | IC50 [3] | Ki [3] | IC50 (D(3) dopamine receptor; cho) | IC50 (Substance-P receptor; cho) | IC50 (Melanocortin receptor 5; read-out: IC50) | Ki (Melanocortin receptor 5; read-out: Ki) | IC50 (D(3) dopamine receptor; read-out: IC50) | Ki (D(3) dopamine receptor) | IC50 (Substance-P receptor; read-out: IC50) | Ki (Substance-P receptor; read-out: Ki) |
| --- | --- | --- | --- | --- | --- | --- | --- | --- | --- | --- | --- | --- | --- | --- | --- | --- |
| CCOC(=O)[C@H](CCc1ccccc1)N[C@@H](C)C(=O)N1[C@H](C(=O)O)C[C@@H]2CCC[C@@H]21 | Not Active | Not Active | Not Active | Not Active | Not Active | Not Active | Not Active | Not Active | Not Active | Not Active |  |  |  |  |  |  |
| CC(C)(C)NC(=O)[C@@H]1CN(Cc2cccnc2)CCN1C[C@@H](O)C[C@@H](Cc1ccccc1)C(=O)N[C@H]1c2ccccc2C[C@H]1O.O | Not Active | Not Active | Not Active | Not Active | Not Active | Not Active | Not Active | Not Active | Not Active | Not Active |  |  |  |  |  |  |
| CC1(C)[C@H]2CC[C@]1(C)C(=O)C2 [(-)-CAMPHOR] | Not Active | Not Active | Not Active | Not Active | Not Active | Not Active | Not Active | Not Active | Not Active | Not Active |  |  |  |  |  |  |
| CC(C)(C)NCC(O)c1ccc(O)c(CO)c1 (configuration not stated) [ALBUTEROL] | Not Active | Not Active | Not Active | Not Active | Not Active | Not Active | Not Active | Not Active | Not Active | Not Active |  |  |  |  |  |  |
| COc1ccc(CCN2CCC(Nc3nc4ccccc4n3Cc3ccc(F)cc3)CC2)cc1 [ASTEMIZOLE] |  | Not Active | Not Active |  |  | Not Active |  |  |  |  | 2.26 µM | 2.12 µM |  |  |  |  |
| CN(C)CCCN1c2ccccc2CCc2ccc(Cl)cc21 [CLOMIPRAMINE] | Not Active | Not Active | Not Active |  |  | Not Active |  |  |  | Not Active |  |  | 0.139 µM | 0.047 µM |  |  |
| Clc1ccccc1C(c1ccccc1)(c1ccccc1)n1ccnc1 [CLOTRIMAZOLE] | Not Active | Not Active | Not Active |  |  | Not Active |  |  |  |  |  |  | 2.65 µM | 0.899 µM | 16 µM | 8.75 µM |
| O=C(CCCN1CCC(O)(c2ccc(Cl)cc2)CC1)c1ccc(F)cc1 [HALOPERIDOL] | Not Active | Not Active | Not Active |  |  | Not Active |  |  |  | Not Active |  |  |  |  |  |  |
| Oc1c(I)cc(I)c2cccnc12 [IODOQUINOL] | Not Active | Not Active | Not Active | Not Active | Not Active | Not Active | Not Active | Not Active | Not Active | Not Active |  |  |  |  |  |  |
| NNC(=O)c1ccncc1 [ISONIAZID] | Not Active | Not Active | Not Active | Not Active | Not Active | Not Active | Not Active | Not Active | Not Active | Not Active |  |  |  |  |  |  |
| CC1=C(/C=C/C(C)=C/C=C/C(C)=C\C(=O)O)C(C)(C)CCC1 [ISOTRETINOIN] | Not Active | Not Active | Not Active | Not Active | Not Active | Not Active | Not Active | Not Active | Not Active | Not Active |  |  |  |  |  |  |
| CO[C@@H]1[C@@H](O[C@@H]2O[C@H](C)[C@@H](O[C@H]3C[C@@](C)(O)[C@@H](OC(=O)CC(C)C)[C@H](C)O3)[C@H](N(C)C)[C@H]2O)[C@@H](CC=O)C[C@@H](C)[C@@H](O)/C=C/C=C/C[C@@H](C)OC(=O)C[C@H]1O [KITASAMYCIN] | Not Active | Not Active | Not Active | Not Active | Not Active | Not Active | Not Active | Not Active | Not Active | Not Active |  |  |  |  |  |  |
| CC(CCc1ccccc1)NCC(O)c1ccc(O)c(C(N)=O)c1 (configuration not stated) [LABETALOL] | Not Active | Not Active | Not Active | Not Active | Not Active | Not Active | Not Active | Not Active | Not Active | Not Active |  |  |  |  |  |  |
| Nc1nnc(-c2cccc(Cl)c2Cl)c(N)n1 [LAMOTRIGINE] | Not Active | Not Active | Not Active | Not Active | Not Active | Not Active | Not Active | Not Active | Not Active | Not Active |  |  |  |  |  |  |
| CCC[C@@H]1C[C@@H](C(=O)N[C@@H]([C@H]2O[C@H](SC)[C@H](O)[C@@H](O)[C@H]2O)[C@@H](C)O)N(C)C1 [LINCOMYCIN] | Not Active | Not Active | Not Active | Not Active | Not Active | Not Active | Not Active | Not Active | Not Active | Not Active |  |  |  |  |  |  |
| NCCCC[C@H](N[C@@H](CCc1ccccc1)C(=O)O)C(=O)N1CCC[C@H]1C(=O)O [LISINOPRIL ANHYDROUS] | Not Active | Not Active | Not Active | Not Active | Not Active | Not Active | Not Active | Not Active | Not Active | Not Active |  |  |  |  |  |  |
| CN1CCN2c3ccccc3Cc3ccccc3C2C1 (configuration not stated) [MIANSERIN] | Not Active | Not Active | Not Active |  |  | Not Active |  |  | Not Active | Not Active |  |  |  |  |  |  |
| CC(C)(O)c1ccccc1CC[C@@H](SCC1(CC(=O)O)CC1)c1cccc(/C=C/c2ccc3ccc(Cl)cc3n2)c1 [MONTELUKAST] | Not Active | Not Active | Not Active |  |  | Not Active |  |  |  | Not Active |  |  |  |  |  |  |
| CSc1ccc2c(c1)N(CCC1CCCCN1C)c1ccccc1S2 (configuration not stated) [THIORIDAZINE] | Not Active | Not Active | Not Active |  |  | Not Active |  |  |  | Not Active |  |  |  |  |  |  |
| COc1cccc(C2(O)CCCCC2CN(C)C)c1 (configuration not stated) [TRAMADOL] | Not Active | Not Active | Not Active |  |  | Not Active |  |  | Not Active | Not Active |  |  |  |  |  |  |
